Data as given in patent US8853213B2, “Bicyclic compound for modulating G protein-coupled receptors” (Hanmi Pharm. Co., Ltd, priority 2011, dated 2014).

target: T1, GPR119 (Homo sapiens, UniProt Q8TDV5); test: Controlling Effect of GPR119 in CRE-bla CHO-K1 Cells (EC50); format: cell-based; details: GPR119 CRE-bla CHO-K1 cell line, 5 hr incubation with compound, β-lactamase LiveBLAzer-FRET B/G readout; read-out: controlling effect against GPR119 in CRE-bla CHO-K1 cell line (EC50)
T1 construct: host or cells: CHO-K1 (CRE-bla reporter, doxycycline-induced)
T1 sequence (Q8TDV5 1-335): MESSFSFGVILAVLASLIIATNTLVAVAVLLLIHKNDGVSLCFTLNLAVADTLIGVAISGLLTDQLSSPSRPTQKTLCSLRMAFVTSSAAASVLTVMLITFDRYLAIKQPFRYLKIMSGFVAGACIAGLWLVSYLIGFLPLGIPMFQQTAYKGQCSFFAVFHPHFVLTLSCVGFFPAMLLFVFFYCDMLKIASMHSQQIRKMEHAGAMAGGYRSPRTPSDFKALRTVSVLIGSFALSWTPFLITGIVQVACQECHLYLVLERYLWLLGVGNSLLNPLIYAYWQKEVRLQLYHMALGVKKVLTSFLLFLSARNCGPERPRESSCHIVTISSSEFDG
Procedure: Controlling Effect of GPR119 in CRE-bla CHO-K1 Cells (EC50)
The day before the experiment, GPR119 CRE-bla CHO-K1 cell line purchased from Invitrogen was seeded in a 96 black well plate in an amount of 80 μl at a density of 5×10^4 cells. After the seeding, 10 μl of doxycycline in a concentration of 1 μg/ml was added to each well and incubated in an incubator at 37° C. under 5% CO2 for about 16 to 20 hr.
The day of experiment, sample compounds were performed a 10-fold serial dilution with a culture medium at various concentrations of 1 uM to […]. Considering that the culture medium used in the seeding and doxycycline are together applied, the sample compounds were diluted to a 5-fold dilution of the planned concentration. 20 μl of the compound diluted with the culture medium was added to each well and incubated in the incubator for 5 hr. The compound-untreated group was added with 20 μl of 0.5% dimethyl sulfoxide (DMSO) diluted with the culture medium. After 5 hr from the incubation, substrate mixture of a 6-fold concentration were prepared; 6 μl of 1 mM LiveBLAzer™-FRET B/G(CCF4-AM) substrate, 60 μl of solution B, 904 μl of solution C and 30 μl of solution D. 12 μl of the substrate mixture was added to each well and allowed to be kept at room temperature for 2 hr with shading the light. Fluorescence intensity value of blue channel and green channel was determined by a fluorescence microplate reader at 409 nm/460 nm and 409 nm/[…] (excitation/emission), respectively. In order to confirm the controlling effect of the inventive compounds against GPR119, EC50 (half maximal effective concentration) was determined based on the determined values. EC50, the concentration at which 50% activity of β-lactamase, was determined according to the following Equation: Equation=[(Ti−Tz)/(C−Tz)]×100
[Wherein, Ti: Cell density of the compound-treated group; Tz: Cell density of the negative control group; and C: Cell density of the positive control group]

Compound	EC50 [nM]
CCc1cnc(N2CCC(Oc3ncnc4c(-c5ccc(S(C)(=O)=O)cc5F)cn(C)c34)CC2)nc1 [Example 29, 4-(1-(5-ethylpyrimidin-2-yl)piperidin-4-yloxy)-7-(2-fluoro-4-methanesulfonyl-phenyl)-5-methyl-5H-pyrrolo[3,2-d]pyrimidine]	< 100
CCCc1cnc(N2CCC(Oc3ncnc4c(-c5ccc(S(C)(=O)=O)cc5F)cn(C)c34)CC2)nc1 [Example 30]	< 100
Cn1cc(-c2ccc(S(C)(=O)=O)cc2F)c2ncnc(OC3CCN(c4ncc(C(F)(F)F)cn4)CC3)c21 [Example 31, 7-(2-fluoro-4-methanesulfonyl-phenyl)-5-methyl-4-(1-(5-(trifluoromethyl)pyrimidin-2-yl)piperidin-4-yloxy)-5H-pyrrolo[3,2-d]pyrimidine]	< 100
CCc1cnc(N2CCC(Oc3ncnc4c(-c5ccc(S(C)(=O)=O)cc5)cn(CC)c34)CC2)nc1 [Example 32, 5-ethyl-4-(1-(5-ethylpyrimidin-2-yl)piperidin-4-yloxy)-7-(4-methanesulfonyl-phenyl)-5H-pyrrolo[3,2-d]pyrimidine]	< 100
CCc1cnc(N2CCC(Oc3ncnc4c(-c5ccc(S(C)(=O)=O)cc5F)cn(CC)c34)CC2)nc1 [Example 33, 5-ethyl-4-(1-(5-ethylpyrimidin-2-yl)piperidin-4-yloxy)-7-(2-fluoro-4-methanesulfonyl-phenyl)-5H-pyrrolo[3,2-d]pyrimidine]	< 100
CCCc1cnc(N2CCC(Oc3ncnc4c(-c5ccc(S(C)(=O)=O)cc5F)cn(CC)c34)CC2)nc1 [Example 34, 5-ethyl-7-(2-fluoro-4-methanesulfonyl-phenyl)-4-(1-(5-propylpyrimidin-2-yl)piperidin-4-yloxy)-5H-pyrrolo[3,2-d]pyrimidine]	< 100
CC(C)c1noc(N2CCC(Oc3ncnc4c(-c5ccc(S(C)(=O)=O)cc5)cn(C)c34)CC2)n1 [Example 35, 3-isopropyl-5-(4-(5-methyl-7-(4-methanesulfonyl-phenyl)-5H-pyrrolo[3,2-d]pyrimidin-4-yloxy)piperidin-1-yl)-1,2,4-oxadiazole]	< 100
CC(C)c1noc(N2CCC(Oc3ncnc4c(-c5ccc(S(C)(=O)=O)cc5F)cn(C)c34)CC2)n1 [Example 36, 5-(4-(7-(2-fluoro-4-methanesulfonyl-phenyl)-5-methyl-5H-pyrrolo[3,2-d]pyrimidin-4-yloxy)piperidin-1-yl)-3-isopropyl-1,2,4-oxadiazole]	< 100
CCn1cc(-c2ccc(S(C)(=O)=O)cc2F)c2ncnc(OC3CCN(c4nc(C(C)C)no4)CC3)c21 [Example 37, 5-(4-(5-ethyl-7-(2-fluoro-4-methanesulfonyl-phenyl)-5H-pyrrolo[3,2-d]pyrimidin-4-yloxy)piperidin-1-yl)-3-isopropyl-1,2,4-oxadiazole]	< 100
CC(C)c1noc(N2CC[C@H](Oc3ncnc4c(-c5ccc(S(C)(=O)=O)cc5)cn(C)c34)C2)n1 [Example 38, 4-[1-(3-isopropyl-[1,2,4]oxadiazol-5-yl)-pyrrolidin-3-yloxy]-7-(4-methanesulfonyl-phenyl)-5-methyl-5H-pyrrolo[3,2-d]pyrimidine]	> 1000
CCc1cnc(N2CC[C@H](Oc3ncnc4c(-c5ccc(S(C)(=O)=O)cc5)cn(C)c34)C2)nc1 [Example 39, 4-[1-(5-ethylpyrimidin-2-yl)-pyrrolidin-3-yloxy]-7-(4-methanesulfonyl-phenyl)-5-methyl-5H-pyrrolo[3,2-d]pyrimidine]	100 to 1000
Cn1cc(-c2ccc(S(C)(=O)=O)cc2)c2ncnc(OC3CCN(C(=O)NC(C)(C)C)CC3)c21 [Example 40, 4-[7-(4-methanesulfonyl-phenyl)-5-methyl-5H-pyrrolo[3,2-d]pyrimidin-4-yloxy]piperidin-1-carboxylic acid tert-butylamide]	100 to 1000
CC(C)c1noc(N2CCC(Oc3ncnc4c(-c5ccc(N)cc5)cn(C)c34)CC2)n1 [Example 41, 4-(4-(1-(3-isopropyl-1,2,4-oxadiazol-5-yl)piperidin-4-yloxy)-5-methyl-5H-pyrrolo[3,2-d]piperidin-7-yl)benzenamine]	> 1000
CC(C)c1noc(N2CCC(Oc3ncnc4c(-c5ccc([N+](=O)[O-])cc5)cn(C)c34)CC2)n1 [Example 42, 3-isopropyl-5-(4-(5-methyl-7-(4-nitrophenyl)-5H-pyrrolo[3,2-d]pyrimidin-4-yloxy)piperidin-1-yl)-1,2,4-oxadiazole]	> 1000
CCc1cnc(N2CCC(Oc3ncnc4c(-c5ccc(C#N)cc5)cn(C)c34)CC2)nc1 [Example 43, 4-{4-[1-(5-ethylpyrimidin-2-yl)-piperidin-4-yloxy]-5-methyl-5H-pyrrolo[3,2-d]pyrimidin-7-yl}-benzonitrile]	> 1000
CCc1cnc(N2CCC(Oc3ncnc4c(-c5ccc(C(C)=O)cc5)cn(C)c34)CC2)nc1 [Example 44, 1-(4-{4-[1-(5-ethylpyrimidin-2-yl)-piperidin-4-yloxy]-5-methyl-5H-pyrrolo[3,2-d]pyrimidin-7-yl}-phenyl)-ethanone]	100 to 1000
CC(C)N1CCC(Oc2ncnc3c(-c4ccc(S(C)(=O)=O)cc4)cn(C)c23)CC1 [Example 45, 4-(1-isopropyl-piperidin-4-yloxy)-7-(4-methanesulfonyl-phenyl)-5-methyl-5H-pyrrolo[3,2-d]pyrimidine]	100 to 1000
Cn1cc(-c2ccc(S(C)(=O)=O)cc2)c2ncnc(OC3CCN(C(=O)C(C)(C)C)CC3)c21 [Example 46, 1-{4-[7-(4-methanesulfonyl-phenyl)-5-methyl-5H-pyrrolo[3,2-d]pyrimidin-4-yloxy]-piperidin-1-yl}-2,2-dimethynyl-propan-1-one]	100 to 1000
Cn1cc(-c2ccc(F)nc2)c2ncnc(OC3CCN(C(=O)OC(C)(C)C)CC3)c21 [Example 47, tert-butyl 4-(7-(6-fluoropyridin-3-yl)-5-methyl-5H-pyrrolo[3,2-d]pyrimidin-4-yloxy)piperidine-1-carboxylate]	> 1000
CCc1cnc(N2CCC(Oc3ncnc4c(-c5ccc(F)nc5)cn(C)c34)CC2)nc1 [Example 48, 4-(1-(5-ethylpyrimidin-2-yl)piperidin-4-yloxy)-7-(6-fluoropyridin-3-yl)-5-methyl-5H-pyrrolo[3,2-d]pyrimidine]	> 1000
CCc1cnc(N2CCC(COc3ncnc4c(-c5ccc(S(C)(=O)=O)cc5)cn(C)c34)CC2)nc1 [Example 49, 4-((1-(5-ethylpyrimidin-2-yl)piperidin-4-yl)methoxy)-5-methyl-7-(4-methanesulfonyl-phenyl)-5H-pyrrolo[3,2-d]pyrimidine]	100 to 1000
CC(C)(C)OC(=O)N1CCC(Oc2ncnc3c(-c4ccc(S(C)(=O)=O)cc4)csc23)CC1 [Example 50, tert-butyl 4-(7-(4-methanesulfonyl-phenyl)thieno[3,2-d]pyrimidin-4-yloxy)piperidine-1-carboxylate]	< 100
CC(C)c1noc(N2CCC(Oc3ncnc4c(-c5ccc(S(C)(=O)=O)cc5)csc34)CC2)n1 [Example 51]	< 100
CS(=O)(=O)c1ccc(-c2csc3c(OC4CCN(c5nc(CC6CC6)no5)CC4)ncnc23)cc1 [Example 52, 3-(cyclopropylmethyl)-5-(4-(7-(4-methanesulfonyl-phenyl)thieno[3,2-d]pyrimidin-4-yloxy)piperidin-1-yl)-1,2,4-oxadiazole]	< 100
CC(C)(C)c1noc(N2CCC(Oc3ncnc4c(-c5ccc(S(C)(=O)=O)cc5)csc34)CC2)n1 [Example 53, 3-tert-butyl-5-(4-(7-(4-methanesulfonyl-phenyl)thieno[3,2-d]pyrimidin-4-yloxy)piperidin-1-yl)-1,2,4-oxadiazole]	< 100
CS(=O)(=O)c1ccc(-c2csc3c(OC4CCN(c5nc(C6CCC6)no5)CC4)ncnc23)cc1 [Example 54, 3-cyclobutyl-5-(4-(7-(4-methanesulfonyl-phenyl)thieno[3,2-d]pyrimidin-4-yloxy)piperidin-1-yl)-1,2,4-oxadiazole]	< 100
CCc1cnc(N2CCC(Oc3ncnc4c(-c5ccc(S(C)(=O)=O)cc5)csc34)CC2)nc1 [Example 55, 4-(1-(5-ethylpyrimidin-2-yl)piperidin-4-yloxy)-7-(4-methanesulfonyl-phenyl)thieno[3,2-d]pyrimidine]	< 100
